Assay results reported in US20160175306A1, “COMBINATION OF A IMIDAZOPYRIDAZINE DERIVATIVE AND A MITOTIC AGENT FOR THE TREATMENT OF CANCER” (BAYER PHARMA AKTIENGESELLSCHAFT, priority 2013, published 2016).

Legend:
[1] = test system: spindle assembly checkpoint in HeLa cells (phosphorylated histone H3 on serine 10); assay: Spindle Assembly Checkpoint Assay; assay type: cell-based; conditions: Homo sapiens, nocodazole 0.1 μg/ml, 4 h with compound
Description: The spindle assembly checkpoint assures the proper segregation of chromosomes during mitosis. Upon entry into mitosis, chromosomes begin to condensate which is accompanied by the phosphorylation of histone H3 on serine 10. Dephosphorylation of histone H3 on serine 10 begins in anaphase and ends at early telophase. Accordingly, phosphorylation of histone H3 on serine 10 can be utilized as a marker of cells in mitosis. Nocodazole is a microtubule destabilizing substance. Thus, nocodazole interferes with microtubule dynamics and mobilises the spindle assembly checkpoint. […] An inhibition of the spindle assembly checkpoint by Mps-1 inhibitors overrides the mitotic blockage in the presence of nocodazole, and the cells complete mitosis prematurely. This alteration is detected by the decrease of cells with phosphorylation of histone H3 on serine 10. This decline is used as a marker to determine the capability of compounds of the present invention to induce a mitotic breakthrough.
Cultivated cells of the human cervical tumour cell line HeLa (ATCC CCL-2) were plated at a density of 2500 cells/well in a 384-well microtiter plate in 20 μl Dulbeco's Medium (w/o phenol red, w/o sodium pyruvate, w […] glucose, w pyridoxine) supplemented with 1% (v/v) glutamine, 1% (v/v) penicillin, 1% (v/v) streptomycin and 10% (v/v) fetal calf serum. After incubation overnight at 37° C., 10 μl/well nocodazole at a final concentration of 0.1 μg/ml were added to cells. After 24 h incubation, cells were arrested at G2/M phase of the cell cycle progression. […] Images were acquired with a Perkin Elmer OPERA™ High-Content Analysis reader. Images were analyzed with image analysis software MetaXpress™ from Molecular devices utilizing the Cell Cycle application module. In this assay both labels HOECHST 33342 and phosphorylated Histone H3 on serine 10 were measured. […] The raw assay data were further analysed by four parameter logistic regression analysis to determine the IC50 value for each tested compound.

[2] = molecular target: T1, human CYP3A4 (Homo sapiens, UniProt P08684); assay: Determination of inhibitory potential on human CYP3A4; assay type: in vitro ADME; conditions: human liver microsomes, midazolam substrate; read-out: inhibition of liver enzyme CYP3A4
T1 construct: Human liver microsomal preparation (pool of HLM) was applied for the assay; from tissue; host or cells: pooled human liver microsomes
T1 sequence (P08684 whole entry): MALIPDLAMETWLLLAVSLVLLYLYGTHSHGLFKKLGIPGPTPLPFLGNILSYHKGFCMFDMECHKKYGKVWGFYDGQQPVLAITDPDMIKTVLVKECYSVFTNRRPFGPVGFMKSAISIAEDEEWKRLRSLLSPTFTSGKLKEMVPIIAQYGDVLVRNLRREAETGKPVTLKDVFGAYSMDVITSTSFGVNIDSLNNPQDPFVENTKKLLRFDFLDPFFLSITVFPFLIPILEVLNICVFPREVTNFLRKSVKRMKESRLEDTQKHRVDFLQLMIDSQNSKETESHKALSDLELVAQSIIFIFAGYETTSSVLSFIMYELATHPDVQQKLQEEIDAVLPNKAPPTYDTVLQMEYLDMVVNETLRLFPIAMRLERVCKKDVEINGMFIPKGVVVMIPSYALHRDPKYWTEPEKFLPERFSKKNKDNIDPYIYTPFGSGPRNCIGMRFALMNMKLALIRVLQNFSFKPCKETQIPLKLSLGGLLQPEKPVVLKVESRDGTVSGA
Description: Determination of Inhibitory Potential on Human CYP3A4
The potential of the test compound to act as a competitive inhibitor of CYP3A4 was evaluated in in vitro assays, using human liver microsomes and the reference substrate midazolam. The test compound was solved in acetonitrile. Human liver microsomal preparation (pool of HLM) was applied for the assay.
A stock solution of the test compound was added to phosphate buffer containing EDTA, NADP, glucose 6-phosphate, and glucose 6-phosphate dehydrogenase. This mixture was sequentially diluted on a Genesis Workstation (Tecan, Crailsheim, FRG). After pre-warming, reaction was initiated by addition of a mixture of probe substrate (midazolam). […] The reference samples (substrate, but no inhibitor) were incubated in parallel in sextuple and contained the same amount of solvent as the test incubations. Reactions were stopped by addition of 100 μL acetonitrile containing the internal standard. Precipitated proteins were removed by centrifugation of the well plate, supernatants were analyzed by LC-MS/MS.
The CYP3A4-mediated metabolic activity in the presence of the test compounds was expressed as percentages of the corresponding reference value. […]

[3] = test system: HeLa human cervical tumour cells; assay: Proliferation Assay with HeLa cells; assay type: cell-based; conditions: 96 h, 4 days, crystal violet
Description: After 24 hours, the cells of one plate (zero-point plate) were stained with crystal violet (see below), while the medium of the other plates was replaced by fresh culture medium (200 μl), to which the test substances were added in various concentrations (0 μM, as well as in the range of 0.01-30 μM; the final concentration of the solvent dimethyl sulfoxide was 0.5%). The cells were incubated for 4 days in the presence of test substances. […] After three washing cycles of the fixed cells with water, the plates were dried at room temperature. The cells were stained by adding 100 μl/measuring point of a 0.1% crystal violet solution (pH 3.0). After three washing cycles of the stained cells with water, the plates were dried at room temperature. The dye was dissolved by adding 100 μl/measuring point of a 10% acetic acid solution. […] The change of cell number, in percent, was calculated by normalization of the measured values to the extinction values of the zero-point plate (=0%) and the extinction of the untreated (0 μm) cells (=100%). The IC50 values were determined by means of a 4 parameter fit using the company's own software.

Row | IC50 [1] [nM] | IC50 [2] [nM] | IC50 [3] [nM] | Compound
1 | < 1 | ≥ 5000 | < 25 | COc1ccc(Oc2cc(NCC3CCOCC3)c3ncc(-c4ccc(C(=O)NC5CC5)c(C)c4)n3n2)c(F)c1F [Compound A28, N-cyclopropyl-4-{6-(2,3-difluoro-4-methoxyphenoxy)-8-[(tetrahydro-2H-pyran-4-ylmethyl)amino]imidazo[1,2-b]pyridazin-3-yl}-2-methylbenzamide]
2 | < 1 | ≥ 5000 | < 25 | COc1ccc(Oc2cc(NCC3COC3)c3ncc(-c4ccc(C(=O)NC5CC5)c(C)c4)n3n2)cc1F [Compound A26, N-cyclopropyl-4-{6-(3-fluoro-4-methoxyphenoxy)-8-[(oxetan-3-ylmethyl)amino]imidazo[1,2-b]pyridazin-3-yl}-2-methylbenzamide]
